Measured values reported in PMC7557804, “The Anti-Microbial Peptide (Lin-SB056-1)2-K Reduces Pro-Inflammatory Cytokine Release through Interaction with Pseudomonas aeruginosa Lipopolysaccharide” (Antibiotics, 2020).

What was measured:
A549 cells = assay: Cytokine production by A549 cells stimulated with whole P. aeruginosa PAO1; assay type: cell-based, Human; conditions: 4 h, 37 °C, 5% CO2
Description: The reference strain P. aeruginosa PAO1 (ATCC 15692) was used in this study. For the preparation of stock cultures, bacteria were grown in Tryptone Soy Broth (TSB; Thermo Fisher Scientific, Waltham, MA, USA) until mid-exponential phase, then aliquoted and stored at −80 °C. For the preparation of the inoculum, a volume of 50 μL of the frozen culture was inoculated in 5 mL of TSB, and subsequently incubated for 18 h at 37 °C. […]
In some experiments, the ability of (lin-SB056-1)2-K to inhibit cytokine production by A549 cells stimulated with whole P. aeruginosa (PAO1 strain) was assessed. […]
Different pro-inflammatory cytokines (i.e., IL-1β, IL-6, IL-8 and TNF-α) were quantified in cell culture supernatants through a bead-based multiplex immunoassay (LEGENDplex multi-analyte flow assay kit; BioLegend, San Diego, CA, USA) following manufacturer’s instructions. […] Following consecutive washing steps, the beads were resuspended in the LEGENDplex wash buffer and the samples were analyzed by flow cytometry (BD Accuri C6 flow cytometer; BD Biosciences, Mountain View, CA, United States). Data were acquired with the BD Accuri C6 software (BD Biosciences) (300 events per analyte) and analyzed with the LEGENDplex software (BioLegend). […]

[1] = BODIPY TR cadaverine (BC) fluorescent displacement assay, LPS binding; parameters: species or system P. aeruginosa; conditions: 50 mM Tris-HCl, pH 7.4, 25 °C
Description: Measurement of the ability of lin-SB056-1 and its dendrimeric derivative to bind P. aeruginosa serotype 10 LPS (Sigma-Aldrich) in vitro was performed by a fluorescent displacement assay using the BODIPY TR cadaverine (BC) probe (5-(((4-(4,4-difluoro-5-(2-thienyl)-4-bora-3a,4a-diaza-s-indacene-3-yl)phenoxy)acetyl)amino)pentylamine, hydrochloride); Thermo Fisher Scientific), as described elsewhere. BC binds to LPS by recognizing the lipid A portion and the probe fluorescence is quenched. When a peptide able to interact with LPS is added, BC is displaced from the complex and its fluorescence increases. LPS binding assays were carried out in 50 mM Tris-HCl buffer, pH 7.4. Aliquots of the peptides at a final concentration of 0.1 μM were successively added to a cuvette containing the LPS/BC complex (10 µg/mL P. aeruginosa LPS and 10 µM BC). Fluorescence measurements were performed with a Perkin-Elmer LS 55B spectrofluorometer (Perkin-Elmer, Waltham, MA, USA) using a thermostated (25 °C) cuvette apparatus (excitation: 580 nm; emission: 620 nm).

P. aeruginosa = conditions: 3-D lung epithelial cell model, cited from earlier work
Description: (§1) In our previous work, we explored different strategies to enhance the anti-bacterial and anti-biofilm activity of the semi-synthetic peptide lin-SB056-1 [12] in physiologically relevant, host-mimicking conditions that are known to interfere with the stability and efficacy of AMPs.

[2] = tested on: reference strain and CF lung isolates of P. aeruginosa; conditions: cell culture medium; cited from earlier work
Description: as §1

## [KWKIRVRLSA]2-K [(lin-SB056-1)2-K, dendrimeric derivative of lin-SB056-1]
A549 cells; 9.6 μM peptide, PAO1 fixed with 4% paraformaldehyde, 5 × 10^6 CFU/well, statistically significant, mean of at least three independent experiments
  reduction in IL-6 levels: up to 70%
A549 cells; 9.6 and 19.25 μM peptide, fixed PAO1 5 × 10^6 CFU/well
  effect on IL-8 release: no evident effect
[1]; BC displacement
  LPS-binding affinity compared to monomeric form: significantly greater affinity
[1]; P. aeruginosa serotype 10 LPS 10 µg/mL, BC 10 µM, excitation 580 nm, emission 620 nm, mean of three independent experiments, SD not exceeding 5%
  ED50 (Effective Displacement; peptide concentration displacing half of the BC): approximately 0.4 µM
P. aeruginosa; 19.25 µM
  reduction in the number of biofilm-forming bacteria: ≤ 99.9%
P. aeruginosa; compared to lin-SB056-1 and lin-SB056-1/EDTA
  anti-biofilm activity: stronger anti-biofilm activity compared to both lin-SB056-1 and the lin-SB056-1/EDTA combination
[2]
  MIC (Minimal Inhibitory Concentration): 2.4 to 9.6 µM
  fold lower MIC compared to lin-SB056-1: 4 to 16 fold
